Source: the NIST ThermoML archive (doi:10.1021/je060479w)
Numbers after ± are expanded uncertainties. Values belong to the compound of their own block, whether it stands above or below them.

Settings: for electrical conductivity / mass density / viscosity: 298.2 K, 101.33 kPa, Liquid; for electrical conductivity: Alternating current cell with electrodes; for mass density: Pycnometric method; for viscosity: rotary viscometer; for Normal melting temperature: Crystal; for Normal melting temperature / Glass transition temperature: DTA

SMILES: CC(O)C(=O)O.OCCN(CCO)CCO [triethanolamine lactate]
- electrical conductivity: 0.009 ± 0.001 S/m
- mass density: 1222 ± 26 kg/m3
- viscosity: 455 mPa·s
- Normal melting temperature: -54.8 ± 0.5 °C
- Glass transition temperature: -59.4 ± 5 °C

- electrical conductivity: 0.3291 ± 0.0001 S/m
- mass density: 1204 ± 26 kg/m3
- viscosity: 118 mPa·s
- Normal melting temperature: -82.2 ± 0.5 °C
- Glass transition temperature: -85.9 ± 5 °C
SMILES: NCCO.O=CO [2-hydroxyethylammonium formate]

SMILES: CC(O)C(=O)[O-].[NH3+]CCO (stereo unspecified) [2-hydroxyethylammonium lactate]
- electrical conductivity: 0.03775 ± 1e-05 S/m
- mass density: 1202 ± 26 kg/m3
- viscosity: 1200 mPa·s
- Normal melting temperature: -58.5 ± 0.5 °C
- Glass transition temperature: -63.7 ± 5 °C

SMILES: O=CO.OCCN(CCO)CCO [triethanolamine formate]
- Normal melting temperature: 67.6 ± 0.5 °C

SMILES: CC(=O)[O-].[NH3+]CCO [2-hydroxyethylammonium acetate]
- electrical conductivity: 0.0692 ± 0.0001 S/m
- mass density: 1120 ± 26 kg/m3
- viscosity: 640 mPa·s
- Normal melting temperature: -70.9 ± 0.5 °C
- Glass transition temperature: -75.8 ± 5 °C

SMILES: CC(=O)O.OCCN(CCO)CCO [triethanolammonium acetate]
- electrical conductivity: 0.04958 ± 1e-05 S/m
- mass density: 1120 ± 26 kg/m3
- viscosity: 342 mPa·s
- Normal melting temperature: -72.2 ± 0.5 °C
- Glass transition temperature: -78.8 ± 5 °C
